This note sets out measurements from ChEMBL document CHEMBL3045324, “5-phenyl-1-benzofuran-2-yl derivatives: synthesis, antimicrobial, and antioxidant activity” (2013).

In brackets after ≈: the same amount, converted by molar mass. Activity calls are given as the source filed them. The rule behind the calls is not given here.

Assay [1] concerns Bacillus subtilis. Kind of assay: Antibacterial activity against Bacillus subtilis NCTC 10400 assessed as growth inhibition after 24 hr. Type of assay: functional. To be noted: NCTC 10400, 24 h.
In assay [2] the test system is Staphylococcus aureus. Kind of assay: Antibacterial activity against Staphylococcus aureus NCTC 10788 assessed as growth inhibition after 24 hr. As to conditions: NCTC 10788, 24 h. In kind it is functional.
Assay [3] concerns Candida albicans. Kind of assay: Antifungal activity against Candida albicans NCPF 3179 assessed as growth inhibition at 50 mg/mL after 3 days. Type of assay: functional. To be noted: NCPF 3179, 72 h, read-out: IZ.
Assay [4] has as its system Bacillus subtilis. Kind of assay: Antibacterial activity against Bacillus subtilis NCTC 10400 assessed as growth inhibition at 50 mg/mL after 24 hr. In kind it is functional. As to conditions: for zone of inhibition at 50000 µg/mL: NCTC 10400, 24 h, read-out: IZ.
For assay [5], the system named is Staphylococcus aureus. The experiment in a line: Antibacterial activity against Staphylococcus aureus NCTC 10788 assessed as growth inhibition at 50 mg/mL after 24 hr. In kind it is functional. To be noted: for zone of inhibition at 50000 µg/mL: NCTC 10788, 24 h, read-out: IZ.
The test system of assay [6] is Escherichia coli. Kind of assay: Antibacterial activity against Escherichia coli NCTC 12923 assessed as growth inhibition at 50 mg/mL after 24 hr. In kind it is functional. As to conditions: for zone of inhibition at 50000 µg/mL: NCTC 12923, 24 h, read-out: IZ.
Assay [7] relates to Radical scavenging activity. The experiment in a line: Antioxidant activity assessed as DPPH radical scavenging activity at 1 mg/mL after 15 min UV-vis spectrophotometric analysis relative to control. In kind it is functional. On the technique in general: The DPPH test is a chemical assay of radical scavenging.
Assay [8] concerns Escherichia coli. The experiment in a line: Antibacterial activity against Escherichia coli NCTC 12923 assessed as growth inhibition at 1 to 50 mg/mL after 24 hr. Type of assay: functional, organism-based.
The test system of assay [9] is Candida albicans. The experiment in a line: Antifungal activity against Candida albicans NCPF 3179 assessed as growth inhibition at 1 to 50 mg/mL after 3 days. In kind it is functional, organism-based.
Assay [10] concerns Bacillus subtilis. Kind of assay: Antibacterial activity against Bacillus subtilis NCTC 10400 assessed as growth inhibition at 1 to 50 mg/mL after 24 hr. In kind it is functional, organism-based.
Assay [11] concerns Staphylococcus aureus. Kind of assay: Antibacterial activity against Staphylococcus aureus NCTC 10788 assessed as growth inhibition at 1 to 50 mg/mL after 24 hr. In kind it is functional, organism-based.

Broadly, the MIC is the lowest concentration that inhibits growth of the organism. Take `CC(=O)c1ccccc1-c1ccc(C(=O)c2cc3cc(-c4ccccc4C(C)=O)ccc3o2)cc1`: the MIC in the assay on Bacillus subtilis [1] and with Staphylococcus aureus [2] was 100 µg/mL (≈ 218 µM) throughout. The zone of inhibition at 50000 µg/mL was 0 mm in the assay with Candida albicans [3], 10 mm in the assay on Bacillus subtilis [4], 8 mm with Staphylococcus aureus [5] and 0 mm in the assay with Escherichia coli [6]. The Activity in assay [7] was 19%. In addition, the “growth inhibition (GI)” value in the assay on Escherichia coli [8] is “inactive”.
Consider `CCOc1ccccc1-c1ccc(C(O)(CC)c2cc3cc(-c4ccccc4OCC)ccc3o2)cc1` (stereo not given), for which the Activity in assay [7] came out at 5.5%. For the same compound, the “growth inhibition (GI)” value in the assay with Candida albicans [9], in the assay with Escherichia coli [8], with Bacillus subtilis [10] and in the assay on Staphylococcus aureus [11] was “inactive” each time.
As for `CCOc1ccccc1-c1ccc(C(O)(c2cc3cc(-c4ccccc4OCC)ccc3o2)C(C)(C)C)cc1` (stereo not given), the Activity in assay [7] was found to be 21.2%. Further, the “growth inhibition (GI)” value in the assay with Candida albicans [9], with Escherichia coli [8], in the assay on Bacillus subtilis [10] and with Staphylococcus aureus [11] was “inactive” throughout.
Consider `CCc1ccc(-c2ccc(C(O)c3cc4cc(-c5ccc(CC)cc5)ccc4o3)cc2)cc1` (stereo not given), for which the Activity in assay [7] was 55.7%. Further, the “growth inhibition (GI)” value in the assay on Candida albicans [9], in the assay with Escherichia coli [8], with Bacillus subtilis [10] and in the assay on Staphylococcus aureus [11] was “inactive” throughout.
Take `CC1(C)S[C@@H]2[C@H](NC(=O)[C@H](N)c3ccccc3)C(=O)N2[C@H]1C(=O)O` [AMPICILLIN]: the zone of inhibition at 50000 µg/mL in the assay with Candida albicans [3] stood at 0 mm; in the assay with Bacillus subtilis [4], 15 mm; with Staphylococcus aureus [5], 16 mm; with Escherichia coli [6], 20 mm.
For the compound `OC(Cc1ccccc1)(c1ccc(-c2ccccc2)cc1)c1cc2cc(-c3ccccc3)ccc2o1` (stereo not given), in assay [7], the Activity worked out at 30.5%. Besides, the “growth inhibition (GI)” value with Candida albicans [9], with Escherichia coli [8], in the assay with Bacillus subtilis [10] and in the assay with Staphylococcus aureus [11] was “inactive” throughout.
On to `CCc1ccc(-c2ccc(C(=O)c3cc4cc(-c5ccc(CC)cc5)ccc4o3)cc2)cc1`, for which the Activity in assay [7] worked out at 17.3%. Moreover, in the assay on Escherichia coli [8], the “growth inhibition (GI)” value was “inactive”.
On the same counts, the results for `CS(=O)(=O)c1cccc(-c2ccc(C(O)c3cc4cc(-c5cccc(S(C)(=O)=O)c5)ccc4o3)cc2)c1` (stereo not given) are 39.8% and “inactive”.
Regarding `OC(c1ccc(-c2ccccc2)cc1)c1cc2cc(-c3ccccc3)ccc2o1` (stereo not given), the Activity in [7] came to 79.5%. Also, the “growth inhibition (GI)” value in the assay on Candida albicans [9], with Escherichia coli [8], with Bacillus subtilis [10] and with Staphylococcus aureus [11] was “inactive” each time.
For the compound `CCc1ccc(-c2ccc(C(O)(Cc3ccccc3)c3cc4cc(-c5ccc(CC)cc5)ccc4o3)cc2)cc1` (stereo not given), the Activity in assay [7] came to 60.3%. Also, the “growth inhibition (GI)” value in the assay with Candida albicans [9], in the assay on Escherichia coli [8], in the assay on Bacillus subtilis [10] and in the assay with Staphylococcus aureus [11] was “inactive” in each case.
With `CCOc1ccccc1-c1ccc(C(O)(c2cc3cc(-c4ccccc4OCC)ccc3o2)C(C)C)cc1` (stereo not given), the Activity in assay [7] stood at 11.4%. In addition, the “growth inhibition (GI)” value in the assay on Candida albicans [9], with Escherichia coli [8], with Bacillus subtilis [10] and with Staphylococcus aureus [11] was “inactive” in each case.
For the compound `CCc1ccc(-c2ccc(C(O)(c3cc4cc(-c5ccc(CC)cc5)ccc4o3)C(C)C)cc2)cc1` (stereo not given), the Activity in assay [7] turned out to be 34.7%. Further, the “growth inhibition (GI)” value with Candida albicans [9], with Escherichia coli [8], in the assay on Bacillus subtilis [10] and in the assay on Staphylococcus aureus [11] was “inactive” in each case.
As for `O=C(c1ccc(-c2cccc([N+](=O)[O-])c2)cc1)c1cc2cc(-c3cccc([N+](=O)[O-])c3)ccc2o1`, the minimal inhibitory concentration (MIC) in the assay with Bacillus subtilis [1] came to 50 µg/mL (≈ 108 µM). Besides, the zone of inhibition at 50000 µg/mL with Candida albicans [3] amounted to 0 mm; in the assay with Bacillus subtilis [4] it was 7 mm; with Staphylococcus aureus [5] it was 0 mm; in the assay with Escherichia coli [6], 0 mm. Also, in assay [7], the Activity is 19.5%. Also, the “growth inhibition (GI)” value with Escherichia coli [8] is “inactive”.
In the case of `CCOc1ccccc1-c1ccc(C(O)(Cc2ccccc2)c2cc3cc(-c4ccccc4OCC)ccc3o2)cc1` (stereo not given), the Activity in assay [7] amounted to 16.4%. Moreover, the “growth inhibition (GI)” value with Candida albicans [9], in the assay on Escherichia coli [8], in the assay with Bacillus subtilis [10] and in the assay on Staphylococcus aureus [11] was “inactive” throughout.
With `CCC(O)(c1ccc(-c2ccccc2)cc1)c1cc2cc(-c3ccccc3)ccc2o1` (stereo not given), the Activity in assay [7] was determined as 12.9%. The “growth inhibition (GI)” value with Candida albicans [9], in the assay on Escherichia coli [8], with Bacillus subtilis [10] and in the assay with Staphylococcus aureus [11] was “inactive” throughout.
Consider `CCc1ccc(-c2ccc(C(O)(CC)c3cc4cc(-c5ccc(CC)cc5)ccc4o3)cc2)cc1` (stereo not given), for which the Activity in assay [7] was 55.2%. Moreover, the “growth inhibition (GI)” value in the assay on Candida albicans [9], in the assay on Escherichia coli [8], in the assay with Bacillus subtilis [10] and in the assay on Staphylococcus aureus [11] was “inactive” in each case.
For the compound `Cc1cc(C(C)(C)C)c(O)c(C(C)(C)C)c1`, in [7], the Activity was determined as 90.4%.
As to `OC(c1ccc(-c2ccccc2F)cc1)c1cc2cc(-c3ccccc3F)ccc2o1` (stereo not given), in the assay with Bacillus subtilis [1], the MIC was 50 µg/mL (≈ 121 µM). The zone of inhibition at 50000 µg/mL in the assay with Candida albicans [3] is 0 mm; in the assay on Bacillus subtilis [4] it was 6 mm; with Staphylococcus aureus [5] it was 0 mm; with Escherichia coli [6] it was 0 mm. For the same compound, in assay [7], the Activity came to 21.3%. Moreover, the “growth inhibition (GI)” value in the assay with Candida albicans [9], in the assay on Escherichia coli [8], in the assay on Bacillus subtilis [10] and in the assay on Staphylococcus aureus [11] was “inactive” throughout.
Consider `CC(C)C(O)(c1ccc(-c2ccccc2)cc1)c1cc2cc(-c3ccccc3)ccc2o1` (stereo not given), for which the Activity in [7] stood at 52.3%. In addition, the “growth inhibition (GI)” value in the assay with Candida albicans [9], in the assay on Escherichia coli [8], in the assay with Bacillus subtilis [10] and with Staphylococcus aureus [11] was “inactive” in each case.
As to `N#Cc1ccc(Cl)c(-c2ccc(C(=O)c3cc4cc(-c5cc(C#N)ccc5Cl)ccc4o3)cc2)c1`, in assay [7], the Activity was determined as 15.8%. For the same compound, the “growth inhibition (GI)” value in the assay on Candida albicans [9], in the assay on Escherichia coli [8], in the assay on Bacillus subtilis [10] and in the assay with Staphylococcus aureus [11] was “inactive” each time.
With `O=C(c1ccc(-c2ccccc2F)cc1)c1cc2cc(-c3ccccc3F)ccc2o1`, the Activity in assay [7] came to 18.7%. Also, the “growth inhibition (GI)” value in the assay with Candida albicans [9], in the assay on Escherichia coli [8], with Bacillus subtilis [10] and in the assay on Staphylococcus aureus [11] was “inactive” in each case.
As for NYSTATIN, the inhibition zone (IZ) in the assay on Bacillus subtilis [4], in the assay with Staphylococcus aureus [5] and with Escherichia coli [6] was 0 mm throughout.
In the case of `CCOc1ccccc1-c1ccc(C(=O)c2cc3cc(-c4ccccc4OCC)ccc3o2)cc1`, the Activity in assay [7] is 16.1%. The “growth inhibition (GI)” value with Candida albicans [9], in the assay with Escherichia coli [8], with Bacillus subtilis [10] and in the assay on Staphylococcus aureus [11] was “inactive” each time.
`CC(C)(C)C(O)(c1ccc(-c2ccccc2)cc1)c1cc2cc(-c3ccccc3)ccc2o1` (stereo not given): the Activity in assay [7] worked out at 18.8%. Besides, the “growth inhibition (GI)” value in the assay on Candida albicans [9], with Escherichia coli [8], with Bacillus subtilis [10] and in the assay on Staphylococcus aureus [11] was “inactive” each time.
As to `CCc1ccc(-c2ccc(C(O)(c3cc4cc(-c5ccc(CC)cc5)ccc4o3)C(C)(C)C)cc2)cc1` (stereo not given), in [7], the Activity is 24.2%. For the same compound, the “growth inhibition (GI)” value in the assay on Candida albicans [9], in the assay with Escherichia coli [8], in the assay with Bacillus subtilis [10] and in the assay on Staphylococcus aureus [11] was “inactive” in each case.
Consider `CCOc1ccccc1-c1ccc(C(O)c2cc3cc(-c4ccccc4OCC)ccc3o2)cc1` (stereo not given), for which the Activity in assay [7] was 19.3%. In addition, the “growth inhibition (GI)” value in the assay with Candida albicans [9], in the assay with Escherichia coli [8], in the assay with Bacillus subtilis [10] and with Staphylococcus aureus [11] was “inactive” each time.
As for `O=[N+]([O-])c1cccc(-c2ccc(C(O)c3cc4cc(-c5cccc([N+](=O)[O-])c5)ccc4o3)cc2)c1` (stereo not given), the MIC in the assay on Bacillus subtilis [1] and with Staphylococcus aureus [2] was 500 µg/mL (≈ 1070 µM) in each case. Also, the zone of inhibition at 50000 µg/mL in the assay on Candida albicans [3] worked out at 0 mm; in the assay on Bacillus subtilis [4], 6 mm; in the assay on Staphylococcus aureus [5], 6 mm; with Escherichia coli [6], 0 mm. The Activity in [7] was 19.9%. In addition, the “growth inhibition (GI)” value with Escherichia coli [8] was “inactive”.
